Reference: ChEMBL document CHEMBL3217558 (Medchemcomm, 2012)

Columns and labels:
[1] = molecular target: Voltage-gated inwardly rectifying potassium channel KCNH2 (Homo sapiens, UniProt Q12809)
[2] = molecular target: Hepatocyte growth factor receptor (Homo sapiens, UniProt P08581)
Sequence of Hepatocyte growth factor receptor (P08581 whole entry): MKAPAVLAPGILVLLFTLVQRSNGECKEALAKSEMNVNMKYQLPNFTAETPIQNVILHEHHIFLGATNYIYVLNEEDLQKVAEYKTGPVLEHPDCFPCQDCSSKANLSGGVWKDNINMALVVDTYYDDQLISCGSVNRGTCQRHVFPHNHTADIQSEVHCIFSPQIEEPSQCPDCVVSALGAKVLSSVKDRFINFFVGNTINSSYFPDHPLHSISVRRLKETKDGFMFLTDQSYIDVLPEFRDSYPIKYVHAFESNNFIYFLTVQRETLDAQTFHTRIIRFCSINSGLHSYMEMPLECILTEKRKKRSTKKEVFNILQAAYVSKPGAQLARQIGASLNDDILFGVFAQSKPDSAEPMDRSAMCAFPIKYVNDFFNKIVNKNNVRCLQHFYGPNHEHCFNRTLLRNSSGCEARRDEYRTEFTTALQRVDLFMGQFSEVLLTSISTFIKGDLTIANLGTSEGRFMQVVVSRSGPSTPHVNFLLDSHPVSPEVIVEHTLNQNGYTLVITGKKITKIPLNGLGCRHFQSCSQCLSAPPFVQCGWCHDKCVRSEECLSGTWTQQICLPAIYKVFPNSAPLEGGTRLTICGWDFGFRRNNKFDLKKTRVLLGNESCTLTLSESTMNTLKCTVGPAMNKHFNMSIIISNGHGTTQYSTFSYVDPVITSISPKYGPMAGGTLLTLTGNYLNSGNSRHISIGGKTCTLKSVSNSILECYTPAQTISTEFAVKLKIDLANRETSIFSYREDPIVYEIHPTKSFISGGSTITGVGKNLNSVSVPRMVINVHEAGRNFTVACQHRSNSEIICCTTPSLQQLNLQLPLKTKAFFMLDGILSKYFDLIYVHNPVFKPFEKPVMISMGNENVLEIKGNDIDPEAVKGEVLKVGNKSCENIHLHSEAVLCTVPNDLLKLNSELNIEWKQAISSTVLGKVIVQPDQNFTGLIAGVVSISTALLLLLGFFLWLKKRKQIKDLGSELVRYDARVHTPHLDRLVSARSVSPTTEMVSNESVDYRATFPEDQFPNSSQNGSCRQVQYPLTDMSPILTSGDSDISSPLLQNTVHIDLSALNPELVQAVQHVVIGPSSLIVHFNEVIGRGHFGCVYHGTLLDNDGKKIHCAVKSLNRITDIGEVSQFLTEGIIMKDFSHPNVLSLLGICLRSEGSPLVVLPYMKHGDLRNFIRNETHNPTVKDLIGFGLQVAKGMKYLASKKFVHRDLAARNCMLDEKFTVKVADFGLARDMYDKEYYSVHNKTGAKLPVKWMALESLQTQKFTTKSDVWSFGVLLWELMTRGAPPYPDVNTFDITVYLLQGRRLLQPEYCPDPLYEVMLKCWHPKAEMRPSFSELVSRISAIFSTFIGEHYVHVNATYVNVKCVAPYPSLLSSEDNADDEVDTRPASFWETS
Description: Inhibition of c-Met (unknown origin) using poly (Glu, Tyr) 4:1 as substrate after 60 mins by ELISA

Sequence of Voltage-gated inwardly rectifying potassium channel KCNH2 (Q12809 whole entry): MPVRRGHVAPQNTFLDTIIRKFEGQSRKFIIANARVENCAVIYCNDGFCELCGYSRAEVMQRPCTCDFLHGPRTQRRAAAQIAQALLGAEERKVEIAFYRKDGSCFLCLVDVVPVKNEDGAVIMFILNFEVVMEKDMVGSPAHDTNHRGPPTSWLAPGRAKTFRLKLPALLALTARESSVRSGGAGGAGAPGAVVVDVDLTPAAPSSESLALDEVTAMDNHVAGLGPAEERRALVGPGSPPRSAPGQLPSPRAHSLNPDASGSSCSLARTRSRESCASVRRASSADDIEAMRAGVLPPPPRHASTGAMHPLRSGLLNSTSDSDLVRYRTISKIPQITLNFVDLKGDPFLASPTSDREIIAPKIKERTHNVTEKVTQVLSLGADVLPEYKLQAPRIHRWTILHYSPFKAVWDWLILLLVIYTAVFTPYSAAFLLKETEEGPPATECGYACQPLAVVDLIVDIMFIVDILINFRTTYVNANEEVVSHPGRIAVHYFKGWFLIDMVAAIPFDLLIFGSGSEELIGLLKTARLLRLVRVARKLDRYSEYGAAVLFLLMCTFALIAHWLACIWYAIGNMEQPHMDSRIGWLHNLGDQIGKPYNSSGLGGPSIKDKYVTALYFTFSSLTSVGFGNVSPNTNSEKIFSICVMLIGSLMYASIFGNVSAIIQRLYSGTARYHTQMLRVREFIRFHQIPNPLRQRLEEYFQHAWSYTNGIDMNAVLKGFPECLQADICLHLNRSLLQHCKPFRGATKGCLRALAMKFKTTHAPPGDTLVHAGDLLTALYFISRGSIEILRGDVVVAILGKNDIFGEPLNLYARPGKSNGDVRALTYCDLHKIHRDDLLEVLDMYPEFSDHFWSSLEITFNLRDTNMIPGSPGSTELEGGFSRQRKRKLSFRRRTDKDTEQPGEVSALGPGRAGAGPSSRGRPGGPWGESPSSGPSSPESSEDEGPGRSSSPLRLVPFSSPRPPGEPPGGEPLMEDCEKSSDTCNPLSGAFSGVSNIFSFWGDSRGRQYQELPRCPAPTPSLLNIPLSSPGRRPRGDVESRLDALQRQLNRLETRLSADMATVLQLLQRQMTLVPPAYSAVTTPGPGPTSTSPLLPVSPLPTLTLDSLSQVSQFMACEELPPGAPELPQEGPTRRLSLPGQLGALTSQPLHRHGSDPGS

IC50 [2] [µM]	Compound	IC50 [1] [µM]
	CC(=O)c1cccc(CNc2cc(C(F)(F)F)cc3ncc(N4CCN(C)CC4)cc23)c1	93.6
	CCNC(=O)Nc1cccc(CNc2cc(C(F)(F)F)cc3ncc(N4CCN(C)CC4)cc23)c1	81.7
0.0016	[2H]C(Nc1cc(C(F)(F)F)cc2ncc(N3CCN(C(C)=O)CC3)cc12)c1cccc([N+](=O)[O-])c1 (stereo not drawn)	
